Test results from PubChem BioAssay (NCI).
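Growth conditions: 96-well plates. Treatment: test compound, 48 hours, 5 concentrations. Analysis: linear interpolation between bracketing concentrations; unreached endpoints set to highest concentration. GI50 marks 50% less growth. TGI is the concentration that stops growth completely.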

What was measured:
Assay in all cases: NCI-60 cell line screen, 48 h
LOX IMVI melanoma = test system: LOX IMVI melanoma
SNB-75 CNS = test system: SNB-75 CNS
HOP-92 NSCLC = test system: HOP-92 NSCLC
SF-268 CNS = test system: SF-268 CNS
TK-10 renal = test system: TK-10 renal
BT-549 breast = test system: BT-549 breast
OVCAR-5 ovarian = test system: OVCAR-5 ovarian
HCT-15 colon = test system: HCT-15 colon
SF-295 CNS = test system: SF-295 CNS
HCC-2998 colon = test system: HCC-2998 colon

Compound `Cc1ccc(C2SCc3nc4ccc(C(=O)c5ccccc5)cc4n32)cc1` (stereo not given) has a GI50 (LOX IMVI melanoma) greater than 36.7 µM, a TGI (LOX IMVI melanoma) greater than 100 µM and a GI50 (SNB-75 CNS) of 23.3 µM. It also gave a TGI (SNB-75 CNS) greater than 70 µM, a GI50 (HOP-92 NSCLC) of 11.7 µM and a TGI (HOP-92 NSCLC) of 38.8 µM. For the same compound, the GI50 (SF-268 CNS) was 22.4 µM, the TGI (SF-268 CNS) was 77.7 µM and the GI50 (TK-10 renal) was 13.9 µM. The TGI (TK-10 renal) was 35.1 µM, the GI50 (BT-549 breast) was 4.8 µM and the TGI (BT-549 breast) was 18.4 µM. The GI50 (OVCAR-5 ovarian) was 21.5 µM, the TGI (OVCAR-5 ovarian) was 55.2 µM and the GI50 (HCT-15 colon) was 3.85 µM. For the same compound, the TGI (HCT-15 colon) was greater than 42.9 µM, the GI50 (SF-295 CNS) was 8.21 µM and the TGI (SF-295 CNS) was 33 µM.

Compound `CN(/N=C/c1ccnc2ccccc12)c1ccc([N+](=O)[O-])cc1[N+](=O)[O-]` has a TGI (LOX IMVI melanoma) greater than 100 µM, a TGI (SNB-75 CNS) of 40 µM and a TGI (HOP-92 NSCLC) greater than 100 µM. For the same compound, the TGI (SF-268 CNS) was greater than 100 µM, the TGI (HCC-2998 colon) was greater than 100 µM and the TGI (TK-10 renal) was greater than 100 µM. It also gave a TGI (OVCAR-5 ovarian) greater than 100 µM, a TGI (HCT-15 colon) greater than 100 µM and a TGI (SF-295 CNS) greater than 100 µM.

`O=C(CCCNC(=O)OCc1ccccc1)OCc1ccc2c(c1)C(=O)c1ccccc1C2=O` gave a TGI (LOX IMVI melanoma) greater than 100 µM, a TGI (SNB-75 CNS) of 40.3 µM and a TGI (HOP-92 NSCLC) greater than 91.3 µM. It also gave a TGI (SF-268 CNS) greater than 100 µM, a TGI (HCC-2998 colon) greater than 100 µM and a TGI (TK-10 renal) greater than 100 µM. It also gave a TGI (OVCAR-5 ovarian) greater than 100 µM, a TGI (HCT-15 colon) greater than 100 µM and a TGI (SF-295 CNS) of 83.9 µM.

In the case of `CCc1ccc(/C(C)=N/NC(N)=S)cc1`, the TGI (HOP-92 NSCLC) is reported as greater than 100 µM, the TGI (SF-268 CNS) is reported as greater than 100 µM and the TGI (HCC-2998 colon) is reported as greater than 100 µM. It also gave a TGI (TK-10 renal) greater than 100 µM, a TGI (OVCAR-5 ovarian) of 72.3 µM and a TGI (SF-295 CNS) greater than 100 µM.

With `NS(=O)(=O)c1ccc(NC(=O)CC(=O)Nc2ccc(S(N)(=O)=O)cc2)cc1` the TGI (LOX IMVI melanoma) was greater than 100 µM, the TGI (SNB-75 CNS) was greater than 100 µM and the TGI (HOP-92 NSCLC) was greater than 100 µM. The TGI (SF-268 CNS) was greater than 100 µM, the TGI (HCC-2998 colon) was greater than 100 µM and the TGI (TK-10 renal) was greater than 100 µM. For the same compound, the TGI (OVCAR-5 ovarian) was greater than 100 µM, the TGI (HCT-15 colon) was greater than 100 µM and the TGI (SF-295 CNS) was greater than 100 µM.

Compound `Cc1c2ncccc2nc2[nH]c3ccc(OCCN(C)C)cc3c12` has a GI50 (LOX IMVI melanoma) of 1.54 µM, a TGI (LOX IMVI melanoma) of 5.78 µM and a GI50 (HOP-92 NSCLC) of 1.99 µM. The TGI (HOP-92 NSCLC) was 9.59 µM, the GI50 (SF-268 CNS) was 2.16 µM and the TGI (SF-268 CNS) was 15.4 µM. For the same compound, the GI50 (HCC-2998 colon) was 1.64 µM, the TGI (HCC-2998 colon) was 14.6 µM and the GI50 (TK-10 renal) was 2.42 µM. The TGI (TK-10 renal) was 9.55 µM, the GI50 (BT-549 breast) was 7.46 µM and the TGI (BT-549 breast) was 29.7 µM. The GI50 (OVCAR-5 ovarian) was 2.81 µM, the TGI (OVCAR-5 ovarian) was 19.2 µM and the GI50 (HCT-15 colon) was 1.33 µM. The TGI (HCT-15 colon) was 16.3 µM, the GI50 (SF-295 CNS) was 1.59 µM and the TGI (SF-295 CNS) was 13 µM.

`c1ccc2cc(OCC3CO3)c(OCC3CO3)cc2c1` (stereo not given) showed a TGI (LOX IMVI melanoma) of 12 µM, a TGI (SNB-75 CNS) of 18.6 µM and a TGI (HOP-92 NSCLC) of 23.5 µM. The TGI (SF-268 CNS) was 13.3 µM, the TGI (TK-10 renal) was 49.2 µM and the TGI (BT-549 breast) was 5.57 µM. The TGI (OVCAR-5 ovarian) was 23.4 µM, the TGI (HCT-15 colon) was 16.6 µM and the TGI (SF-295 CNS) was 8.59 µM.

Compound `CCCCSCc1nc2nc(Cl)c(Cl)nc2[nH]1` has a TGI (LOX IMVI melanoma) of 44.5 µM, a TGI (SNB-75 CNS) of 57.5 µM and a TGI (HOP-92 NSCLC) greater than 100 µM. For the same compound, the TGI (SF-268 CNS) was greater than 100 µM, the TGI (TK-10 renal) was 73.9 µM and the TGI (BT-549 breast) was 79.4 µM. It also gave a TGI (OVCAR-5 ovarian) greater than 100 µM, a TGI (HCT-15 colon) of 85.5 µM and a TGI (SF-295 CNS) of 45.6 µM.

In the case of `Cc1ccc(S(=O)(=O)NC(CCC(=O)Nc2ccccc2)C(=O)Nc2ccccc2)cc1` (stereo not given), the GI50 (HOP-92 NSCLC) is reported as 0.157 µM, the TGI (HOP-92 NSCLC) is reported as 0.544 µM and the GI50 (SF-295 CNS) is reported as 0.362 µM. For the same compound, the TGI (SF-295 CNS) was 1.69 µM.

In the case of `O=C(/C=C/c1c(O)ccc2ccccc12)c1cccc2ccccc12`, the TGI (LOX IMVI melanoma) is reported as greater than 100 µM, the TGI (SNB-75 CNS) is reported as greater than 100 µM and the TGI (HOP-92 NSCLC) is reported as greater than 100 µM. It also gave a TGI (SF-268 CNS) greater than 100 µM, a TGI (HCC-2998 colon) greater than 100 µM and a TGI (TK-10 renal) greater than 100 µM. It also gave a TGI (OVCAR-5 ovarian) greater than 100 µM, a TGI (HCT-15 colon) greater than 100 µM and a TGI (SF-295 CNS) greater than 100 µM.
